According to patent US7186703B2, “Derivatives of branched-chain lipophilic molecules and uses thereof” (D-Pharm Ltd., priority 2000, dated 2007):
Several values for one entry are separate records, joined by “and”; a condition that tells them apart may be missing. Identical values can stand only once.

Experiments:
[1] = test system: blood tumor barrier (BTB) of C6 glioma; assay: BTB opening in C6 glioma-bearing rats, Evans blue accumulation in tumor; type: in vivo, Sprague Dawley rats; details: for EC50: C6 glioma-bearing rats; for BTB EB μg/g Tumor: concentrations around EC50 (Mannitol 25%), unilateral 30 s infusion; for Specificity Tumor/Non-tumor (T/NT): ratio of EB accumulated in tumor and non-tumor brain
Method: (§1) In order to study the ability of DP-BFA compounds to modulate blood tumor barrier (BTB), a model system of C6 glioma-bearing rats, was employed.
(§2) Sprague Dawley (SD) rats were inoculated with C6 gliosarcoma cells following the procedure described by Bartus et al. (Exp Neurol (1996); 142:14–28). A small burr-hole was made in the frontal scalp bone of the rat fixed in a stereotaxis apparatus. Using a Hamilton syringe, 10 μl or 5 μl of media, containing 2.5×10^5 C6 gliosarcoma cells were inoculated into the frontal cortex. Coordinates were 1 mm posterior of bregma, 2.5 mm—lateral, and 3 mm—depth. The needle remained in the place for 5 min. After removal of the needle, fascia and scalp were sutured. The rats were checked 6–8 days after inoculation, when tumors of sufficient size (20–60 mg) had developed. The tumor was weighed after F—Na visualization and dissection. Parts of the rats' brains were subject to histological examinations and monitored for Evans Blue and Fluorescein uptake into ipsilateral tumour tissue, peritumoural tissue and contralateral tissue.
(§3) The bilateral tumor model system of C6 glioma-bearing rats described in Example 23 above was employed for screening of various derivatives of DP-BFA for their ability to permeabilize the blood brain barrier (BBB) in comparison to their effect on the blood tumor barrier (BTB). The experimental procedure described in Example 23 was followed except that the tumor-bearing rats were further treated with DP-BFA. The tested compounds, at concentrations around their EC50 values, were unilaterally infused into the external carotis artery over 30 seconds as described in Example 17. Animals treated with vehicle only serve as a control group. Permeabilization effect was quantitated by measuring accumulation of albumin bound Evans blue dye in tumor (T) versus non-tumor (NT) tissues.
(§4) Specificity index is defined as the ratio between the levels of EB accumulated in tumor and those accumulated in non-tumor brain tissues (T/NT).

[2] = test system: blood brain barrier (BBB); assay: BBB permeabilization in rats, Evans blue extravasation into brain; type: in vivo, Sprague-Dawley rats; details: for MEC: Table 8, sodium salt, in µM; for μg EB/g brain (at EC50) / EC50 / MEC (minimal effective concentration): Table 5; for EC50: rat brain, intracarotid infusion, read-out: EC50 (Evans Blue extravasation); for permeabilization of the BBB (FIG. 1, in words): Evans blue extravasation in rat brain, 3,n-type BFAs; for MEC (minimal effective concentration): concentration giving 3 μg EB/g brain
Description: Permeabilization of the BBB by DP-BFA was investigated in rat model system by monitoring accumulation in the brain of two markers: a) Evans blue dye (EB), which rapidly binds in vivo with albumin (NW 70 kD) and is an indicator for paracellular transport; and b) Fluorescein sodium salt (F—Na), MW 376 D, which is transported via the cellular space, and enables monitoring transcellular transport. Upon BBB disruption the Evans blue-albumin complex irreversibly accumulates in the intercellular space of the brain. The much smaller tracer fluorescein may be transported intracellularly to occupy both inter and intracellular space in the brain.
Blood brain barrier permeabilization in Sprague-Dawley rats was induced by brief exposure to DP-BFA. The animals were anesthetized with Rampun-Imalgen and DP-BFA test compounds were administered via the external carotid artery retrograde to the brain (Smith, Q. R. Methods of study. In: Physiology and Pharmacology of the Blood-Brain Barrier. Ed. Bradbury M. W. B. Spinger-Verlag. Berlin-Heidelberg-NY; 1992: 24–52). The pterygo-palathina artery was ligated to avoid escape of infused solutions towards the external head vasculature. DP-BFA solutions were infused over a period of 30 seconds or half an hour, using a Harvard Apparatus Syringe Pump. Blood flow through carotid communis artery was interrupted only at the time of infusion.
All tested DP-BFA molecules were prepared from stock solutions in either water or ethanol by diluting 200–1000 fold into solution of isosmotic mannitol (5%) in Tromethamine buffer (Sigma) or PBS (pH 7.4)
The markers, Evans blue (EB, 25 mg/ml) and fluorescein (F—Na, 12.5 mg/ml), in 1 ml solution, were injected intravenously immediately following administration of the tested DP-BFA, or after a specific time interval if reversibility of action was investigated. Supportive i.v. infusion of F—Na (12.5 mg/ml–100 μl/min) was performed for 8 minutes. Brains were washed with saline solution (60 ml) 10 min after the intracarotid “flash”. Brain ipsilateral and contralateral hemispheres and tumors, where applicable, were homogenized separately with 50% trichloroacetic acid (TCA). The markers concentrations in the cortex and in tumors, where, applicable, were determined spectrofluorometrically (Uyama, O. et al., (1988) J. Cereb. Blood Flow Metab. 8, 282–284: Abraham et al., (1996) Neurosci. Lett. 208, 85–88). The markers content was calculated as μg marker per one-gram brain tissue. Standard error and Student's test for statistical significance were used.
The experiment was carried out on male Sprague-Dawley rats weighing 250–320 g. The procedure described above in Example 17 was followed.
The effect of the tested compounds on the BBB opening was evaluated by two parameters:
a) efficacy—The degree of BBB opening estimated in terms of accumulation of Evans Blue albumin (μg EB/g brain tissue); and
b) potency—measured in terms of EC50 and minimal effective concentration (MEC) values. EC50 is the concentration of a tested compound producing 50% of the maximal effect of Evans Blue extravasation.
The effect of various DP-BFAs on BBB permeability was tested in the model system of rat brains, as described above in Example 17. Efficacy, namely the level of the BBB opening was expressed as the amount of Evans blue accumulated in the brain (μg EB/g brain). Potency of the tested molecules was estimated by their calculated EC50 and minimal effective concentration (MEC) values.

[3] = Octanol/saline solubility and partition coefficient, shake-flask technique; details: for LogPc (octanol-saline partition coefficient): octanol/physiological saline; for LogPc (octanol-saline partition coefficient) / Water mg/ml (solubility in aqueous solution): sodium salts; for Water mg/ml (solubility in aqueous solution): physiological saline as aqueous solution; for Octanol mg/ml (solubility in octanol): sodium salts of the branched fatty acids and their PO4 derivatives
Method: The lipophilicity values of various derivatives of branched fatty acids were estimated by comparing the solubility of these compounds in organic versus aqueous solutions. Octanol and physiological saline were used, respectively, as the organic and aqueous solutions. The partition coefficient (Pc) value, i.e. the octanol/saline distribution was measured by the shake-flask technique.

[4] = type: in vivo; details: rats, sodium salt; for LC (minimal concentration that caused death): i.a., viability monitored 24 hours
Method: DP-BFA molecules were evaluated for safety and toxicity. Increasing doses of the tested compounds were administered intra-arterially (i.a.) into rats following the protocol described above in Example 17. Animal viability was monitored for 24 hours to evaluate lethal concentrations (LC). LC is defined as the minimal concentration that caused death.
Safety index is defined as the ratio between the lethal dose (LC) and the minimal effective concentration (MEC), wherein MEC corresponds to a calculated concentration of the tested compound that elicits accumulation of three times the amount of Evans blue accumulated in control animals treated with vehicle only, i.e. total accumulation of 3 μg EB. The higher the LC/MEC ratio is, the higher the safety index.

[5] = test system: blood brain barrier (BBB); assay: BBB opening in C6 glioma-bearing rats, Evans blue accumulation in non-tumor brain; type: in vivo, Sprague Dawley rats; details: concentrations around EC50 (Mannitol 25%), unilateral 30 s infusion
Method: as §1, §2, §3, §4

[6] = test system: blood brain barrier (BBB); assay: BBB permeability to EB-albumin and Fluorescein in normal rat brains; type: in vivo; details: compounds at EC50 (Mannitol 25%); for Ratio F-Na/EB (mean of individual ratios): control 9.5 ± 1.6
Description: The effect of various DP-BFAs on BBB permeabilization to molecules of different sizes was examined in vivo in the model system of normal rat brains.
The transport of two markers was followed: a) Evans blue bound to albumin (MW 70 kD) as an indicator for paracellular transport; and b) Fluorescein sodium salt (MW 376 D) that represents small size molecules.
The Evans blue dye (EB) and Fluorescein sodium salt (F—Na) were infused into the artery carotis externa over 30 seconds according to the protocol described above in Example 17. The test compounds were used at their EC50 concentrations. Control animals were treated with vehicle solution.
Evans blue extravasation is expressed as the percentage of the total amount of EB accumulated per one gram of brain tissue. The transport of fluorescein into the brain, which is dependent on the serum concentration of this molecule, is presented as percentage of the F—Na level in the serum.

Compound	EC50 [1] [µM]	BTB EB μg/g Tumor [1] [µg/g]	Specificity Tumor/Non-tumor (T/NT) [1]	MEC [2]	LogPc (octanol-saline partition coefficient) [3]	Water mg/ml (solubility in aqueous solution) [3] [mg/mL]	Octanol mg/ml (solubility in octanol) [3] [mg/mL]	LC (minimal concentration that caused death) [4] [µM]	BBB EB μg/g Non-tumor brain [5] [µg/g]	Ratio F-Na/EB (mean of individual ratios) [6]	Safety LC/MEC [4]	μg EB/g brain (at EC50) [2] [μg EB/g brain]	EC50 [2] [µM]	permeabilization of the BBB (FIG. 1, in words) [2]	MEC (minimal effective concentration) [2]	% EB/g brain ([6]; control 0.04 ± 0.01) [%]	Brain fluorescein uptake (% of serum F-Na level) ([6]; control 0.3 ± 0.08)
4-Hexadecanoyloxyethyl phosphate [3,12-MEG-PO4]	22 ± 3	25 ± 3	1.2 ± 0.2	11 ± 2	1.09	>10	>10	80 ± 15	21 ± 4	–	–	–	–	–	–	–	–
4-Hexadecanyl Phosphate [3,12-PO4]	10 ± 2	14 ± 6	6.3 ± 1.3	3.3 ± 0.5	1.9	>2.5	<5	63 ± 12	2.5 ± 1.5	5.9	19.1	–	–	–	–	–	–
4-Octadecyl phosphate [3,14-PO4]	–	–	–	6.2 ± 0.9	–	–	–	134 ± 18	–	–	21.6	–	–	–	–	–	–
CCCCCCCC(CCC)C(=O)[O-].[Na+] (stereo not shown) [3,7-Na, reference compound]	–	–	–	–	–	–	–	–	–	–	–	0.8	> 450	–	–	–	–
CCCCCCCCCCC(CCC)C(=O)[O-].[Na+] (stereo not shown) [3,10-Na, reference compound]	–	–	–	–	–	–	–	–	–	–	–	08	~700	–	–	–	–
CCCCCCCCCCCCC(CCC)OCCOCCOP(=O)(O)O (stereo not shown) [3,12-(ether)-DEG-PO4, 2-(4′-Hexadecanyloxy)ethoxyethyl phosphate]	–	–	–	–	0.83	>5	>5	–	–	–	–	–	–	–	–	–	–
CCCCCCCCCCCCCCC(CCC)C(=O)[O-].[Na+] (stereo not shown) [3,14-Na, reference compound]	–	–	–	9.1 ± 1.2	1.26	>10	>20	78 ± 11	–	4.7 and 4.7 ± 1.7	8.6	16.5 ± 2.5	40 ± 5	active	9.1 ± 12	0.8 ± 0.07	3.8 ± 0.5 % of the F—Na level in the ser
CCCCCCCCCCCCCCCCC(CCC)C(=O)[O-].[Na+] (stereo not shown) [3,16-Na, reference compound]	–	–	–	18 ± 2	1.26	9.4	>20	431 ± 55	–	–	23.9	–	137 ± 17	active	18 ± 2	–	–
CCCCCCCC(CCCCCCC)OP(=O)(O)O [7,7-PO4, 8-Pentadecyl phosphate]	–	–	–	–	<5	>10	>10	–	–	–	–	–	–	–	–	–	–
